Laboratory results reported in the supplement of paper PMC10290057.
Counter-ions that a name gives are not always drawn.

Experiments:
HCT116 [1] = assay: efficacy (fitted maximal change in viability relative to DMSO control); higher = less cytotoxic (negative = loss of viability); details: 48 h
HCT116 [2] = assay: AC50 cell viability (CellTiter-Glo); higher = less potent; details: 48 h
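For AC50 cell viability (CellTiter-Glo) in this document: HCT116 colorectal carcinoma cells screened at five concentrations per compound, luminescent viability scaled between DMSO wells and empty wells on each plate, curves fitted per compound.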
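For efficacy (fitted maximal change in viability relative to DMSO control) in this document: Luminescence-based viability readout, five doses per compound, normalized against on-plate DMSO and empty-well controls, followed by dose-response curve fitting for every drug.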

SMILES | efficacy (HCT116 [1]) [%] | AC50 cell viability (HCT116 [2]) [µM]
CN(C)Cc1c(C(=O)NCCOc2ccc(C(=O)NO)cc2)oc2ccccc12 [Abexinostat] | -91.9 | 0.263
CC[C@@]1(O)C[C@H](O[C@H]2C[C@H](N(C)C)[C@H](O[C@H]3C[C@H](O)[C@H](O[C@H]4CCC(=O)[C@H](C)O4)[C@H](C)O3)[C@H](C)O2)c2c(cc3c(c2O)C(=O)c2c(O)cccc2C3=O)[C@H]1C(=O)OC [Aclarubicin] | -89.2 | 3.72
C\C1=C(\[C@@H](OC2=C1C=CC(=C2)O)C3=CC=C(OCCN4CCCCC4)C=C3)C5=CC=C(O)C=C5 [Acolbifene] | -94.9 | 18.6
CC(C)C1NC(=O)C(NC(=O)C2=C3\N=C\4/C(=C(C)\C(=O)\C(=C4C(=O)NC5C(C)OC(=O)C(C(C)C)N(C)C(=O)CN(C)C(=O)C6CCCN6C(=O)C(NC5=O)C(C)C)N)OC3=C(C)C=C2)C(C)OC(=O)C(C(C)C)N(C)C(=O)CN(C)C(=O)C7CCCN7C1=O (stereo not drawn) [Actinomycin D] | -73.8 | 0.00144
CC(C)(C)C(=O)OCOP(=O)(COCCn1cnc2c(N)ncnc21)OCOC(=O)C(C)(C)C [Adefovir dipivoxil] | -55.3 | 3.32
Cc1cc(O[C@@H](CCC(F)(F)F)c2ccc(C(=O)NCCC(=O)O)cc2)cc(C)c1-c1ccc(C(C)(C)C)cc1 [Adomeglivant] | -115 | 26.3
CN(C)C/C=C/C(=O)Nc1cc2c(Nc3ccc(F)c(Cl)c3)ncnc2cc1O[C@H]1CCOC1 [Afatinib] | -100 | 4.68
O=C(Nc1cccc(Br)c1)c1cccc([S+](=O)([O-])N2CCCCCC2)c1 [Ak-7] | -59.7 | 14.8
CCC[S+]([O-])c1ccc2[nH]c(NC(=O)OC)nc2c1 (stereo not drawn) [Albendazole oxide] | -45.3 | 13.2
COc1cccc2c1C(=O)c1c(O)c3c(c(O)c1C2=O)C[C@@](O)(/C(CO)=N/NC(=O)CCCCCN1C(=O)C=CC1=O)C[C@@H]3O[C@H]1C[C@H](N)[C@H](O)[C@H](C)O1 [Aldoxorubicin hydrochlorid] | -73.6 | 2.35
COC1=CC=CC(=C1/C2=N/CC3=C(N=C(NC4=CC(=C(C=C4)C(O)=O)OC)N=C3)C5=CC=C(Cl)C=C25)F [Alisertib] | -41.5 | 0.417
O=C1c2cccc(O)c2C(=O)c2c(O)cc(CO)cc21 [Aloe-emodin] | -47.2 | 11.8
Cc1nc(NC(=O)N2CCC[C@H]2C(N)=O)sc1-c1ccnc(C(C)(C)C(F)(F)F)c1 [Alpelisib] | -64.3 | 14.8
CO[C@H]1/C=C\C=C(\C)C(=O)NC2=CC(=O)C(NCCN(C)C)=C(C[C@@H](C)C[C@H](OC)[C@H](O)[C@@H](C)/C=C(/C)[C@@H]1OC(N)=O)C2=O [Alvespimycin hydrochloride] | -92.8 | 0.372
CCN(CC)CCNC(=O)c1c(C)[nH]c(/C=C2/C(=O)Nc3ccc(-c4csc(-c5ccccc5)n4)cc32)c1C [Amcasertib] | -99.9 | 20.9
CCCCc1oc2ccccc2c1C(=O)c1cc(I)c(OCCN(CC)CC)c(I)c1 [Amiodarone hydrochloride] | -71.8 | 23.5
CCCCCCCOc1ccc(CCC(N)(CO)CO)cc1C(F)(F)F [Amiselimod hydrochloride] | -96.7 | 10.5
CN(C)CCN1C(=O)c2cccc3cc(N)cc(c23)C1=O [Amonafide] | -72.8 | 4.17
CC(=O)[C@]1(N)Cc2c(O)c3c(c(O)c2[C@@H](O[C@H]2C[C@H](O)[C@H](O)CO2)C1)C(=O)c1ccccc1C3=O [Amrubicin] | -75.8 | 6.61
COc1cc(N[S+](C)(=O)[O-])ccc1Nc1c2ccccc2nc2ccccc12 [Amsacrine] | -124 | 11.8
S=C(NCc1ccc2c(c1)OCO2)N1CCN(c2ncnc3c2oc2ccccc23)CC1 [Amuvatinib] | -38.8 | 1.86
C=C1CCC2[C@](C)(CO)C(O)CC[C@]2(C)C1C/C=C1/C(=O)OCC1O (stereo partly drawn) [Andrographolide] | -65.7 | 7.42
C=C1CC[C@@H]2[C@](C)(CO)[C@H](O)CC[C@@]2(C)[C@@H]1C/C=C1/C(=O)OC[C@H]1O [Andrographolide] | -68.1 | 4.68
COc1cc2c(Oc3ccc4[nH]c(C)cc4c3F)ccnc2cc1OCC1(N)CC1 [Anlotinib] | -112 | 16.6
Cc1cccc(/C=N/Nc2cc(N3CCOCC3)nc(OCCc3ccccn3)n2)c1 [Apilimod] | -99.4 | 1.18
CCOC(=O)c1c(CSc2ccccc2)n(C)c2cc(Br)c(O)c(CN(C)C)c12 [Arbidol] | -75.8 | 14.8
CC/1=C/C[C@]23O[C@@]2(C)CC[C@@H]4[C@H](OC(=O)C4=C)[C@@H]13 [Arglabin] | -79 | 14.8

SMILES | efficacy (HCT116 [1]) [%] | AC50 cell viability (HCT116 [2]) [µM]
O=C1CCc2ccc(OCCCCN3CCN(c4cccc(Cl)c4Cl)CC3)cc2N1 [Aripiprazole] | -93.8 | 18.6
C[C@@H]1CC[C@H]2[C@@H](C)C(=O)O[C@@H]3O[C@@]4(C)CC[C@@H]1[C@]32OO4 [Artemisinin] | -30.7 | 0.0295
C[C@H]1[C@H](O)O[C@@H]2O[C@@]3(C)CC[C@H]4[C@H](C)CC[C@@H]1[C@@]24OO3 [Artenimol] | -78.7 | 2.63
C[C@H]1[C@H](OC(=O)CCC(=O)O)O[C@@H]2O[C@@]3(C)CC[C@H]4[C@H](C)CC[C@@H]1[C@@]24OO3 [Artesunate] | -62.6 | 4.17
O=C(Nc1ccc(OC(F)(F)Cl)cc1)c1cnc(N2CC[C@@H](O)C2)c(-c2ccn[nH]2)c1 [Asciminib] | -80.6 | 20.9
O=C(Nc1ccc([S+](=O)([O-])N2CCOCC2)cc1)c1cc(Cl)ccc1N[S+](=O)([O-])c1ccc(Cl)s1 [Ataciguat] | -76 | 23.5
CCCC1(CCC)CCC2(CCN(CCCN(CC)CC)C2)CC1 [Atiprimod] | -99.3 | 2.63
CC(C)c1c(C(=O)Nc2ccccc2)c(-c2ccccc2)c(-c2ccc(F)cc2)n1CC[C@@H](O)C[C@@H](O)CC(=O)O [Atorvastatin calcium] | -63.9 | 12.9
COc1ccc(CC2c3cc(OC)c(OC)cc3CC[N+]2(C)CCC(=O)OCCCCCOC(=O)CC[N+]2(C)CCc3cc(OC)c(OC)cc3C2Cc2ccc(OC)c(OC)c2)cc1OC (stereo not drawn) [Atracurium besylate] | -77.8 | 23.5
COc1cc(F)ccc1-c1ncnc(Nc2cccc(C[S+](C)(=N)[O-])c2)n1 (stereo not drawn) [Atuveciclib] | -68 | 0.468
CC[P](CC)(CC)=[Au][S][C@@H]1O[C@H](COC(C)=O)[C@@H](OC(C)=O)[C@H](OC(C)=O)[C@H]1OC(C)=O [Auranofin] | -100 | 2.63
CCN1CCN(C(=O)Cc2ccc(Nc3ncc(F)c(Nc4ccc(C(=O)Nc5ccccc5Cl)cc4)n3)cc2)CC1 [Aurora A Inhibitor I] | -105 | 7.42
CC(C)c1cc(C(C)C)c(CC(=O)N[S+](=O)([O-])Oc2c(C(C)C)cccc2C(C)C)c(C(C)C)c1 [Avasimibe] | -82.3 | 14.8
C=CC(=O)Nc1cccc(Oc2nc(Nc3ccc(N4CCN(C)CC4)c(F)c3)nc3[nH]ccc23)c1 [Avitinib] | -123 | 13.2
CNC(=O)c1ccccc1Sc1ccc2c(/C=C/c3ccccn3)n[nH]c2c1 [Axitinib] | -80.4 | 14.8
Cn1cnc([N+](=O)[O-])c1Sc1ncnc2nc[nH]c12 [Azathioprine] | -83.7 | 2.63
COc1ccc(N(C)c2nc(C)nc3ccccc23)cc1 [Azixa] | -64.3 | 0.00372
CCc1cc(/C(C)=N/OCc2ccc(C3CCCCC3)c(C(F)(F)F)c2)ccc1CN1CC(C(=O)O)C1 [BAF-312] | -66.2 | 20.9
Cc1nc2cnc3ccc(C#Cc4cccnc4)cc3c2n1-c1ccc(C(C)(C)C#N)cc1 [BAG-956] | -92.6 | 1.18
COc1ccc(-c2cc3nccn3c(Nc3ncccc3C(N)=O)n2)cc1OC [BAY61-3606] | -66.9 | 4.17
Nc1nc(-c2nn(Cc3ccccc3F)c3ncccc23)ncc1C1CC1 [BAY-41-2272] | -51.2 | 1.05
CC1=NN=C(C[C@@H]2\C=C(C3=CC=C(Cl)C=C3)/C4=CC=CC=C4[N]5C(=NN=C25)C)O1 [BAY-356] | -72.7 | 0.934
Cc1c(NC(=O)c2cc(C(N)=O)nc3cc(F)ccc23)c(C(F)(F)F)nn1Cc1ccc(C#N)cc1 [BAY-876] | -89.3 | 4.68
Cn1c(=O)n(-c2ccc(C(C)(C)C#N)cc2)c2c3cc(-c4cnc5ccccc5c4)ccc3ncc21 [BEZ-235] | -60.5 | 0.135
CC1(C)C(=O)N(c2ccc(C#N)c(C(F)(F)F)c2)C(=S)N1Cc1ccc(-c2c[nH]nn2)cc1 [BG-15a] | -68.8 | 20.9
C=CC(=O)N1CCC(C2CCNc3c(C(N)=O)c(-c4ccc(Oc5ccccc5)cc4)nn32)CC1 (stereo not drawn) [BGB-3111] | -62.4 | 18.6
O=[N+]([O-])c1cnc(Sc2nnc(O)n2-c2ccc3c(c2)OCCO3)s1 [BI-78D3] | -94.7 | 11.8
